# Source: paper PMC5307958 (Scientific Reports, 2017)
# Entries after “also recorded” stand apart in the source; their conditions may differ. Where a SMILES comes first, the peptide text is derived from it. Bridges are numbered along the chain shown (N, C = ends).
# Assays:
# [1] = tested on: slo-1 null worms (NM1968, js379); assay: C. elegans crawl speed, slo-1 null; type: in vivo, Caenorhabditis elegans; details: for effect on crawl speed (LS3 reduced crawl speed for wild type but not slo-1(null)): 30 min
# Description: (§1) Worms were cultivated at 20 °C as described with OP50 bacteria. Worms cultured on plates contaminated with fungi or other bacteria were excluded from this study. The reference wild-type strain was N2 Bristol. The reference slo-1(null) strain and background for transgenic strains was NM1968, harboring the previously characterized null allele, js379[29]. Multi-site gateway technology (Invitrogen) was used to construct plasmids. […] of the native slo-1 promoter (Pslo-1) and the traditional unc-54 UTR were used in combination with slo-1a(cDNA)::mCherry for a rescue construct. To test rescue with the human BK channel, an hslo(ZERO isoform, cDNA)::mCherry version was constructed. The slo-1(+) and hslo(+) plasmids were injected at a concentration of 20 and 10 ng/μl, respectively. The co-injection reporter PCFJ90 (1.25 ng/μl) was used to ensure proper transformation of the arrays. As such, JPS345 carried vxEx345, an extrachromosomal array containing [Pslo-1::slo-1::mCherry::unc-54UTR,Pmyo-2::mCherry::unc-54UTR]. JPS340 carried […], an extrachromosomal array containing [Pslo-1::hslo::mCherry::unc-54UTR,Pmyo-2::mCherry::unc-54UTR].
# Age-matched day one adults were cleaned of bacteria by letting them crawl around on an unseeded plate and then moved into a puddle of NGM or peptide dissolved in NGM on another unseeded plate. NGM and peptide treatment groups were always run in tandem to control for behavioral variance. While much shorter than typical drug applications in C. elegans, brief application in liquid was chosen to avoid potential catabolic by-products of incubation on metabolically active E. coli. Higher LS3 concentrations were used to compensate. The puddle was refreshed 1–2 times as needed, but let to fully absorb into the agar by 30 minutes. After 30 minutes, crawl behavior was videoed (Flea2 camera, Point Grey Research, Canada; StreamPix 3, NorPix, Canada). Copper rings restricted movement to a proscribed area. The worms were tracked offline using custom macros (Image-Pro, MediaCybernetics, Rockville, MD) for 1 minute to obtain crawl speed (cm/min). Group means ± SEM for peptide-treated vs. vehicle-treated controls were compared at each concentration with Student’s t-tests. Rescue analysis was completed with two-way ANOVA (SigmaPlot, San Jose, CA). Crawl speeds for the peptide treated groups were also normalized to the performance of yoked controls. Normalized group means±SEM were compared vs. slo-1 null performance by two-way ANOVA.
# [2] = tested on: slo-1(+) worm BK channel gene expressed in slo-1(null) worms; assay: C. elegans crawl speed, slo-1(+) rescue on slo-1 null background; type: in vivo, Caenorhabditis elegans; details: 750 μM LS3, 30 min; transgenic slo-1(+) on slo-1(null) background; vs. slo-1(null): p < 0.001, N = 78–162
# Description: as §1
# Age-matched day one adults were cleaned of bacteria by letting them crawl around on an unseeded plate and then moved into a puddle of NGM or peptide dissolved in NGM on another unseeded plate. […]
# [3] = target: T1, human BKα channel (ZERO isoform) expressed in HEK293 cells (Homo sapiens, UniProt Q12791); assay: Patch-clamp recording, inside-out patches, extracellular application; type: cell-based
# T1 construct: expressed in transfected cells; host or cells: HEK293 (ATCC), transient transfection with Lipofectamine 2000; EGFP cotransfected as a separate marker
# Description: HEK293 cells (ATCC, Manassas, VA) were grown according to standard procedures. Cells were cultured at 37 °C in a 5% CO2 atmosphere in Dulbecco’s modified Eagle’s medium with L-glutamine, sodium pyruvate and 10% fetal bovine serum (Invitrogen). Cell lines were split with trypsin/EDTA in Hanks’ balanced salt solution (Invitrogen) up to 25–30 cycles. For phage display, stable lines stably expressed rSK2 or hBKα ZERO isoform. Cells were transfected (Lipofectamine 2000, Invitrogen) with hGlyRα1 and used 48 hours later. For electrophysiological recordings, cells were transfected with hBKα ZERO isoform. Enhanced green fluorescent protein (EGFP) was cotransfected as a marker. Electrophysiological recordings were made 16–72 h after transfection. Although the profile of BK channel composition varies from tissue to tissue, the ZERO BK channel splice variant is widely expressed, particularly in the nervous system, serving as a representative form for studying the modulation of BK channel gating.
# Voltage-clamp recordings were performed at room temperature (22–24 °C) using an inside-out configuration on patches pulled from HEK293 cells. The extracellular solution contained the following (in mM): 2 KCl, 136 KOH, 20 HEPES, 2 MgCl2, adjusted to pH 7.2 with MeSO3H. In order to apply peptide to the extracellular surface, patch electrodes (7–20 MΩ in resistance) were tip-filled with normal extracellular solution and backfilled with extracellular solution containing LS3. Enough normal extracellular solution was included to provide at least five minutes of peptide-free recording (determined by plotting Po vs. time). The intracellular solution (in the bath) contained the following (in mM): 6 KCl, 132 KOH, 20 HEPES, adjusted to pH 7.2 with MeSO3H. To achieve 750 nM free Ca^2+, […] and 5 mM EGTA were included, a ratio verified by measurement with a Ca^2+-sensitive electrode. Voltage-clamp recordings made with an Axopatch 200 A amplifier and custom macros in IgorPro. Analysis was performed with QUB (http://www.qub.buffalo.edu), including Po, mean open time and three component exponential fits to closed dwell times. Group means±SEM for post-peptide measures were plotted relative to pre-peptide values and compared with pre values via planned paired t-tests.
# [4] = tested on: mouse inferior colliculus (auditory midbrain); assay: Sound evoked activity within excitatory receptive field (eRF), topical application on dura
# T1 sequence (Q12791 1-1178 isoform Q12791-5): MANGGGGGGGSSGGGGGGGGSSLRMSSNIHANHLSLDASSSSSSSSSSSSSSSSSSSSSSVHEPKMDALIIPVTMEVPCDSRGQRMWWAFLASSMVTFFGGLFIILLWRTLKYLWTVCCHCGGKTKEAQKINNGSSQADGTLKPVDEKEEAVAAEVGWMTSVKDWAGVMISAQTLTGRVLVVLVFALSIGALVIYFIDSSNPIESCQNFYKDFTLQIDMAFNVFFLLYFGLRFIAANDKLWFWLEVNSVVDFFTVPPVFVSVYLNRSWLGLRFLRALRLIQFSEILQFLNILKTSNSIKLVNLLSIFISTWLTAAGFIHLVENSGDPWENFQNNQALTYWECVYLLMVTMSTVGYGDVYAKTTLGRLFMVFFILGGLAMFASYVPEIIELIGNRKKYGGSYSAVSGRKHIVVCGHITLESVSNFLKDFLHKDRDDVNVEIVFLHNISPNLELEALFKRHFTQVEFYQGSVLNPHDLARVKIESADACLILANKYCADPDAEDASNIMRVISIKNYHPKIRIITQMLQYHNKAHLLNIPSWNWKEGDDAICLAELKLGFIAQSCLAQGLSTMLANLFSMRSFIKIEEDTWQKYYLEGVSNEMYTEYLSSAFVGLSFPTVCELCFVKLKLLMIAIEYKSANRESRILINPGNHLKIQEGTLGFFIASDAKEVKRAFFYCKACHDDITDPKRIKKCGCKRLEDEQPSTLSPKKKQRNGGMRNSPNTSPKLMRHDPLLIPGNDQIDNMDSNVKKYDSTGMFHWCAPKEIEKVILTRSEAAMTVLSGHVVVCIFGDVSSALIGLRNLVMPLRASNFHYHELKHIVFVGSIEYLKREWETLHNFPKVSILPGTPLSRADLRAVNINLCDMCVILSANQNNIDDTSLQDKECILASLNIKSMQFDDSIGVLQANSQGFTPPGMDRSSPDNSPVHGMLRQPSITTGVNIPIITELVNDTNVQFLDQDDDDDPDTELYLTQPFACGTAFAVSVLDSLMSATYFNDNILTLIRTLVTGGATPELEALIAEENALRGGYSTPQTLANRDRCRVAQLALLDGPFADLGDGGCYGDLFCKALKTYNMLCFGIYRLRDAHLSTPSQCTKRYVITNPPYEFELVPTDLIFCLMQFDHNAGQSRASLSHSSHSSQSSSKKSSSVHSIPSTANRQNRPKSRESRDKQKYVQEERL
structure (smiles),measurement,setting,value
CC(C)C[C@@H]1NC(=O)CNC(=O)[C@H](CCCNC(=N)N)NC(=O)[C@H](CCCNC(=N)N)NC(=O)[C@@H](N)CSSC[C@@H](C(=O)O)NC(=O)[C@H](C(C)C)NC(=O)[C@H](CCC(N)=O)NC(=O)[C@H](C(C)C)NC1=O [LS3] (H-CRRGLVQVC-OH; disulfide 1-9; N-terminus and C-terminus assumed),effect on crawl speed (LS3 reduced crawl speed for wild type but not slo-1(null)),[1]; 75 µM LS3 vs. vehicle,not
same,effect on crawl speed (LS3 reduced crawl speed for wild type but not slo-1(null)),[1]; 250 µM LS3 vs. vehicle,not
same,effect on crawl speed (LS3 reduced crawl speed for wild type but not slo-1(null)),[1]; 750 µM LS3 vs. vehicle,not
same,effect on crawl speed,"[1]; slo-1 null, LS3 in NGM, 30 min bath, normalized to vehicle-treated controls",did not significantly slow
same,LS3-induced slowing response (reduction in crawl speed),[2],rescued
same,effect on Po (post vs. pre peptide),"[3]; 50 pM LS3, extracellular, any voltage (60–100 mV), 750 nM Ca",did not significantly alter the Po
same,effect on Po (post vs. pre peptide),"[3]; 500 pM to 500 nM LS3, extracellular, each holding potential 60–100 mV, 750 nM Ca, N = 6–12",reduced the Po at each holding potential
same,effect on Po (post vs. pre peptide),"[3]; 50 nM LS3 applied to extracellular (external) side, each voltage, p < 0.05, N = 6",reduction in Po at each voltage; also recorded: significantly reduce Po at all voltages
same,short closed dwell times,"[3]; 500 nM LS3, 750 nM Ca, three-component exponential fits, component 0, N = 8",remained unchanged; also recorded: did not change significantly
same,long closed dwell times,"[3]; 500 nM LS3, 750 nM Ca, three-component exponential fits, component 2, p < 0.05, N = 8",increased; also recorded: lengthened
same,post Po relative to pre,"[3]; 500 nM LS3, 40 mV, p < 0.05",0.54 ± 0.17
same,single channel conductance post LS3,"[3]; 500 nM LS3, 60 mV, pre peptide 282 ± 4.62 pS (remained stable)",287 ± 5.12 pS
same,mean open times,"[3]; 500 nM LS3, all holding potentials 60–100 mV, 750 nM Ca, p < 0.05, N = 8",decreasing mean open times at all holding potentials; also recorded: shortened openings
same,reduction of probability of channel opening (Po),"[3]; 60 mV, high picomolar to nanomolar LS3, extracellular, intracellular calcium 750 nM",~ 60%
same,apparent affinity compared with known blockers,[3]; LS3 vs. known high affinity BK channel toxins / Kv peptide toxins or paxilline,higher than known high affinity BK channel toxins; also recorded: higher apparent affinity than Kv peptide toxins or paxilline
same,mode of action on channel,"[3]; from change in mean open and closed times, rather than blocking the pore",modulates channel gating
same,IC50 for reduction of BK channel open probability (Po),"[3]; inside-out patches, peptide applied to extracellular side, intracellular calcium 750 nM, 22–24 °C, approximate, in words",mid-picomolar range
same,mean driven activity within receptive field,"[4]; 1 μL of 10 μM LS3, 120 minutes post application, baseline 450 spikes, mean, 49 units",~ 225 spikes
same,reduction of mean sound evoked activity,"[4]; 1 μL of 10 μM LS3, after 3 hours, 47 recording sites, N = 5 mice",~ 70%
same,mean sound evoked activity,"[4]; 1 μL of 10 μM LS3, after 3 hours, baseline 430, 47 recording sites, N = 5 mice",130 spikes
same,time course of driven activity,"[4]; 1 μL of 10 μM LS3, mean of 49 units, F(5,206) = 5.085 P = 0.0002",continued to decline out to 4 hours
same,reduction of sound evoked driven activity within the RF,"[4]; 1 μL of 10 μM stock, from baseline pre-peptide, Fig. 5A,B representative eRFs",approximately 50%
